What all share (assay): Cerep binding
One assay concerns NMDA (PCP). The settings on record: 10 μM; [3H]TCP; rat cerebral cortex.
For the next assay, the system named is T1, Dopamine D5.
T1 construct: host or cells: GH4
The arrangement: species or system human. The settings on record: 10 μM; [3H]SCH 23390; hum. recomb. (GH4).

Another assay concerns T2, Dopamine D4.4.
T2 construct: host or cells: CHO
Further details: species or system human. Particulars: 10 μM; [3H]spiperone; hum. recomb. (CHO).

A further assay relates to T3, Dopamine D2S.
T3 construct: host or cells: HEK-293
Further details: species or system human. Particulars: 10 μM; [3H]spiperone; hum. recomb. (HEK-293).

Another assay has as its system T4, Muscarinic M5.
T4 construct: host or cells: CHO
The arrangement: species or system human. Particulars: 10 μM; [3H]4-DAMP; hum. recomb. (CHO).

Molecules are shown by their SMILES.

As usually defined, the % Inhibition is the drop in the measured response relative to a control, in per cent. Consider `Cc1onc(-c2ccc(F)cc2)c1COc1ccc(C(=O)N2CCS(=O)(=O)CC2)cn1` [basmisanil], for which the “% Inhibition” value in the assay on NMDA (PCP) is listed as 14%; in the assay on Dopamine D5, -11%; with Dopamine D4.4, 9%; in the assay with Dopamine D2S, 9%; in the assay with Muscarinic M5 it was -7%.
